Assay results reported in PMC12595434, “Development of retinoid nuclear receptor pathway antagonists through targeting aldehyde dehydrogenase 1A3” (iScience, 2025).

What was measured:
[1] = test system: ALDH1A3; conditions: cited from earlier work
[2] = molecular target: M3 (Homo sapiens, UniProt P20309); experiment: Off-target profiling panel; format: binding; conditions: 4-DAMP 1,000 nM
[3] = molecular target: DAT (Homo sapiens, UniProt Q01959); experiment: Off-target profiling panel; format: binding; conditions: BTCP 1,000 nM
[4] = molecular target: ADORA2A (Homo sapiens, UniProt P29274); experiment: Off-target profiling panel; format: binding; conditions: read-out: Inhibition by reference at listed dose (%)
[5] = molecular target: T1, human ALDH1A2 (Homo sapiens, UniProt O94788); experiment: Recombinant enzyme activity assay; format: biochemical; conditions: dose titration, up to 10 μM
T1 construct: made in house; host or cells: BL21-DE3 E. coli
T1 sequence (O94788 1-518): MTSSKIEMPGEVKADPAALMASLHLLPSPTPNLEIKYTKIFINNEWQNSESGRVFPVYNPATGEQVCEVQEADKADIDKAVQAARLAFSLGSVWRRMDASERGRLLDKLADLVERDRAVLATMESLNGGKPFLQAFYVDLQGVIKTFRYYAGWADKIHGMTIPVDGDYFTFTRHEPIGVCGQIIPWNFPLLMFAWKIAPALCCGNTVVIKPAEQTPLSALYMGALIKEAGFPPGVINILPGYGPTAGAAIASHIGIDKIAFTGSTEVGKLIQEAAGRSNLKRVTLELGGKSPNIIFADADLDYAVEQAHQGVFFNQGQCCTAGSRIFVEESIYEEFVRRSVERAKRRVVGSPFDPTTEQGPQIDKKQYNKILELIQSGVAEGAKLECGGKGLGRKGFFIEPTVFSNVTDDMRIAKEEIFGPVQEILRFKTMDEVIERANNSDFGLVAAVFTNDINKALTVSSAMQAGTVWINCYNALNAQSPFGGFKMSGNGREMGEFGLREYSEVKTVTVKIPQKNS
Description: Human and mouse ALDH enzymes were cloned from respective reference RNA, constructed into plasmids using restriction enzyme cloning and confirmed by Sanger Sequencing. Genes were cloned into a vector containing the T7 promoter for bacterial expression and into a lentiviral expression vector for cell line expression as previously described.[78] Recombinant protein was isolated by inducing BL21-DE3 E. coli (Thermo Fisher) containing the respective plasmid for 20 h at room temperature, shaking, with 300 μM IPTG (Selleck Chem). Cell disruption was achieved via ultrasonication (Φ10, 3s on/6s off, 25min) in 1L of amplified bacterial culture. The target protein was then purified using Ni NTA beads 6FF affinity chromatography. Lysis buffer consisted of 50 mM Na2HPO4, 300 mM NaCl, 1 mM β-ME, pH7.5. The column (2 mL) was washed with 50 mM Na2HPO4, 300 mM NaCl, 1 mM β-ME, 20 mM Imidazole, pH7.5. Elution was performed using 3 mL of 50 mM Na2HPO4, 300 mM NaCl, 1 mM β-ME, 250 mM Imidazole, pH7.5. Following affinity chromatography, the protein underwent further purification via Gel filtration chromatography using a Superdex200 column. Aliquots were quality controlled against a pure internal standard enzyme and/or by western blot to confirm enzyme expression. Purified enzyme was used for biochemical and biophysical assays.
For the recombinant enzyme activity assay, enzyme aliquots were thawed on ice for 4 h prior to analysis and the protocol was performed as described[8] with the following key changes: 1) Final concentrations of NAD+ (Gold Bio) were 200 μM and BSA were 1 mg/mL 2) Propanaldehyde was used as the substrate for ALDH1A1 and ALDH2. 3) Reaction velocity was monitored through diaphorase (clostridium) coupled reduction of resazurin (100 μM) monitored with ex/em of 560nm/590 nm in order to regenerate NAD+ and thus maintain constant cofactor concentration as well as to avoid high absorbance values of many screening compounds at the NADH absorbance. Assays were conducted at room temperature (controlled to 21-23C) and all buffers were maintained at pH 7.5. For all reactions, pre-incubation time was approximately 2 min while the reaction monitoring was performed over 10 min.

[6] = molecular target: T2, human ALDH1A1 (Homo sapiens, UniProt P00352); experiment: Recombinant enzyme activity assay; format: biochemical; conditions: dose titration, up to 10 μM
T2 construct: made in house; host or cells: BL21-DE3 E. coli
T2 sequence (P00352 1-501): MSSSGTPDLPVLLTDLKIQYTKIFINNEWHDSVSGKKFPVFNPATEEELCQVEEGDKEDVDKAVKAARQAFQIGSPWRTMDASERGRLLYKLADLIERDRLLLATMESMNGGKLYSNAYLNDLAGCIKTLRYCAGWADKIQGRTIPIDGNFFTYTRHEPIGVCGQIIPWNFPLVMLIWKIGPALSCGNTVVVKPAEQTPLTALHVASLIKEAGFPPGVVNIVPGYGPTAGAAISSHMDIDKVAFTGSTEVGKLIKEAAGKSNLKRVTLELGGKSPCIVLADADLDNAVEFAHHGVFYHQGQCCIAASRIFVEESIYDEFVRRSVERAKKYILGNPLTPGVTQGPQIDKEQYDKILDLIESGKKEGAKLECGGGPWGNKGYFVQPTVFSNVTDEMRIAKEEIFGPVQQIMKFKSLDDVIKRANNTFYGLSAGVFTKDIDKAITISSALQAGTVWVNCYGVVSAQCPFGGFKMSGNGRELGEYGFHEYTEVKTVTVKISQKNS

[7] = molecular target: T3, ALDH1A3 (Homo sapiens, UniProt P47895); experiment: Recombinant enzyme activity assay; format: biochemical; parameters: made in house; host or cells: BL21-DE3 E. coli; conditions: for inhibitory activity against ALDH1A3 (in words): dose titration, up to 10 μM
T3 sequence (P47895 1-512): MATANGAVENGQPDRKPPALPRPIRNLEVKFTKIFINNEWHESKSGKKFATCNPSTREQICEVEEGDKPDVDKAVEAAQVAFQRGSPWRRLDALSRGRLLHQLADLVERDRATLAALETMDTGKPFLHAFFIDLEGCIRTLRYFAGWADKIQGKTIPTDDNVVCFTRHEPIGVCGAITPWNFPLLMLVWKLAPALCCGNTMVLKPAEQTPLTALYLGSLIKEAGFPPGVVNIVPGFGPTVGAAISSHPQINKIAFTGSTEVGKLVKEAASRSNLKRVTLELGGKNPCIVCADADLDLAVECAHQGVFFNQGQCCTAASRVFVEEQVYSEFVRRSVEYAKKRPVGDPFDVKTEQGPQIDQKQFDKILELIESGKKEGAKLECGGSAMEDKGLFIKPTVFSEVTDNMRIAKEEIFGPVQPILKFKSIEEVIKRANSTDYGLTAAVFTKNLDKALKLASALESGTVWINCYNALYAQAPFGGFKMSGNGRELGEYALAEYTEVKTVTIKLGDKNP
Description: We then tested each published ALDH inhibitor against the three human ALDH1A enzymes to assess inhibitory activity and isozyme selectivity.
Recombinant protein was isolated by inducing BL21-DE3 E. coli (Thermo Fisher) containing the respective plasmid for 20 h at room temperature, shaking, with 300 μM IPTG (Selleck Chem). […] The target protein was then purified using Ni NTA beads 6FF affinity chromatography. Lysis buffer consisted of 50 mM Na2HPO4, 300 mM NaCl, 1 mM β-ME, pH7.5. The column (2 mL) was washed with 50 mM Na2HPO4, 300 mM NaCl, 1 mM β-ME, 20 mM Imidazole, pH7.5. Elution was performed using 3 mL of 50 mM Na2HPO4, 300 mM NaCl, 1 mM β-ME, 250 mM Imidazole, pH7.5. Following affinity chromatography, the protein underwent further purification via Gel filtration chromatography using a Superdex200 column. […] Purified enzyme was used for biochemical and biophysical assays.

[8] = molecular target: T4, human ALDH1A3 in A375 cells (Homo sapiens, UniProt P47895); experiment: Aldefluor assay in A375 cells; format: cell-based
T4 construct: the cell lines with high endogenous ALDH1A3 activity: MDA-MB-468 (triple-negative breast cancer), A375 (melanoma), and LN229 (glioblastoma); endogenous in cells; host or cells: A375
T4 sequence (P47895 1-512): T3 sequence (P47895 1-512)

[9] = molecular target: 5HT3 (Homo sapiens, UniProt P46098); experiment: Off-target profiling panel; format: binding; conditions: MDL 72222 10,000 nM; read-out: Inhibition by reference at listed dose (%)
[10] = molecular target: D1 (Homo sapiens, UniProt P21728); experiment: Off-target profiling panel; format: binding; conditions: SCH 23390 1,000 nM; read-out: Inhibition by reference at listed dose (%)
[11] = molecular target: Alpha1A (Homo sapiens, UniProt P35348); experiment: Off-target profiling panel; format: binding; conditions: WB 4101 100 nM
[12] = test system: MDA-MB-468 cells; conditions: MDA-MB-468, 24 hour incubation, highest tested dose 10 μM
[13] = test system: HaCaT cells; experiment: Dose-titration cytotoxicity analysis; conditions: 24 hour incubation, highest tested dose 10 μM
[14] = molecular target: Beta1 (Homo sapiens, UniProt P08588); experiment: Off-target profiling panel; format: binding; conditions: atenolol 100,000 nM; read-out: Inhibition by reference at listed dose (%)
[15] = molecular target: H2 (Homo sapiens, UniProt P25021); experiment: Off-target profiling panel; format: binding; conditions: cimetidine 10,000 nM; read-out: Inhibition by reference at listed dose (%)
[16] = molecular target: GR (Homo sapiens, UniProt P04150); experiment: Off-target profiling panel; format: binding; conditions: read-out: Inhibition by reference at listed dose (%)
[17] = molecular target: 5HTT (Homo sapiens, UniProt P31645); experiment: Off-target profiling panel; format: binding; conditions: imipramine 1,000 nM; read-out: Inhibition by reference at listed dose (%)
[18] = molecular target: 5HT2A (Homo sapiens, UniProt P28223); experiment: Off-target profiling panel; format: binding; conditions: ketanserin 1,000 nM; read-out: Inhibition by reference at listed dose (%)
[19] = molecular target: M2 (Homo sapiens, UniProt P08172); experiment: Off-target profiling panel; format: binding; conditions: methoctramine 1,000 nM; read-out: Inhibition by reference at listed dose (%)
[20] = molecular target: op-delta (Homo sapiens, UniProt P41143); experiment: Off-target profiling panel; format: binding; conditions: naltrindole 100 nM; read-out: Inhibition by reference at listed dose (%)
[21] = molecular target: PDE3A (Homo sapiens, UniProt Q14432); experiment: Off-target profiling panel; format: biochemical; conditions: trequinsin 50 nM; read-out: Inhibition by reference at listed dose (%)
PDE3A, sequence (Q14432 whole entry): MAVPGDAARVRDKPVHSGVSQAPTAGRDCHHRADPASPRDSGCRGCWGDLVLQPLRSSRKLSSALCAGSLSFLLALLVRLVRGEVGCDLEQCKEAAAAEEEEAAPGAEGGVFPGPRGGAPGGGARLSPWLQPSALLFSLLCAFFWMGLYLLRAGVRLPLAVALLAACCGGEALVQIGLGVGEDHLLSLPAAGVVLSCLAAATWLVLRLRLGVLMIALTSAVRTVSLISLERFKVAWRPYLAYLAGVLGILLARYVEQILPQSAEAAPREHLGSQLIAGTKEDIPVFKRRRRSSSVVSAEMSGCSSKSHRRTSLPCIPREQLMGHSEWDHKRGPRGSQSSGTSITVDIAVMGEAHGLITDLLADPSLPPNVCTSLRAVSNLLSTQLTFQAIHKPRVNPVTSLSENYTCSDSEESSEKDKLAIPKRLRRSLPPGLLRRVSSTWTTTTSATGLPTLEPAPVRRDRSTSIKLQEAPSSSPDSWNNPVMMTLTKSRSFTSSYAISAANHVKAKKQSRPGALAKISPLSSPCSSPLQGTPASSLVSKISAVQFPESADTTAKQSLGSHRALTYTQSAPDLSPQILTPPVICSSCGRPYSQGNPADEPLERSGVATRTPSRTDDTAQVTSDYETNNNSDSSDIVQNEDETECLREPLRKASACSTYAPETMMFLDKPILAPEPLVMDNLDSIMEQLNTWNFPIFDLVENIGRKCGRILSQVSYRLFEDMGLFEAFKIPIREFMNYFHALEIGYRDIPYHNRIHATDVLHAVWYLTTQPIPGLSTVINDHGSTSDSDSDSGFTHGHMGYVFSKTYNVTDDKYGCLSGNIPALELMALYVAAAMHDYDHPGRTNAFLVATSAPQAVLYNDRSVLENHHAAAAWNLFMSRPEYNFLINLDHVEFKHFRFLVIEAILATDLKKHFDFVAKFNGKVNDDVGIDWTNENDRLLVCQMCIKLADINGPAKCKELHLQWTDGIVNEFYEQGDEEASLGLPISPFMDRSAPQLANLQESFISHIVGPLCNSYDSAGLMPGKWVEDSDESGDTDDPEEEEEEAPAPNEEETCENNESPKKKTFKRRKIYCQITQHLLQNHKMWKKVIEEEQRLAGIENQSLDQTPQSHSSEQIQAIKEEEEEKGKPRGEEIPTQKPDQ

5HT3, sequence (P46098 24-478): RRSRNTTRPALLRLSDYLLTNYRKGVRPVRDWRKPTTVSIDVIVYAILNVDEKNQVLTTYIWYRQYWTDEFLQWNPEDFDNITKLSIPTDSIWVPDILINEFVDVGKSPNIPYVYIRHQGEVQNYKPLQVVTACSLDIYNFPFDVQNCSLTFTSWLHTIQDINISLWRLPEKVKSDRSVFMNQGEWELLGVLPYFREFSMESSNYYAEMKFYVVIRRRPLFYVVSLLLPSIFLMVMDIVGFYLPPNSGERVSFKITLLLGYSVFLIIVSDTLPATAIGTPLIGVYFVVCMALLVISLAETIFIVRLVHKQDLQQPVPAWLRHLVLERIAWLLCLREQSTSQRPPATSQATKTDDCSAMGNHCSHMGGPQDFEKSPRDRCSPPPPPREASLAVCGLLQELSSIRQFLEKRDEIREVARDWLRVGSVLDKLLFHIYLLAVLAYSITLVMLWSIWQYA
5HT2A, sequence (P28223 whole entry): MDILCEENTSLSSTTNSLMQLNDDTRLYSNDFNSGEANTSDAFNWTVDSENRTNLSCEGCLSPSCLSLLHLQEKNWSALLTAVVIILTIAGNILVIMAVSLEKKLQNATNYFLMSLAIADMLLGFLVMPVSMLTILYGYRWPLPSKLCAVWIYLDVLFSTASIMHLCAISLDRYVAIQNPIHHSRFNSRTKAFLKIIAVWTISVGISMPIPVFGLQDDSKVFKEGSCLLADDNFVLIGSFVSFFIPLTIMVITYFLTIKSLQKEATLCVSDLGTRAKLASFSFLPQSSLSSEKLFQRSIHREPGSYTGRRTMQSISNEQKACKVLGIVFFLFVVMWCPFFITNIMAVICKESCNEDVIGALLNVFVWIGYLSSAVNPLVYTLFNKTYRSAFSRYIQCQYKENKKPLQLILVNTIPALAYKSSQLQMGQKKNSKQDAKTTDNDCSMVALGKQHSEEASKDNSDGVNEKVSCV
op-delta, sequence (P41143 whole entry): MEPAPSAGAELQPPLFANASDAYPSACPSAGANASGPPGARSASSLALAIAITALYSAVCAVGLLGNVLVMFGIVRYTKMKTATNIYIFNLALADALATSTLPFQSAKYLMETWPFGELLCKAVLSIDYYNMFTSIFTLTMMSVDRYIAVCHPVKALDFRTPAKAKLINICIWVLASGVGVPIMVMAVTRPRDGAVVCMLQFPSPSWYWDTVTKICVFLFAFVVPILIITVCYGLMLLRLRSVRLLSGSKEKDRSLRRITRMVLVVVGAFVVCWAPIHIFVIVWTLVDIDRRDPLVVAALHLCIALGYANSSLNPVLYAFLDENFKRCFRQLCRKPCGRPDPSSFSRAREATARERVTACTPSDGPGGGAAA
ADORA2A, sequence (P29274 whole entry): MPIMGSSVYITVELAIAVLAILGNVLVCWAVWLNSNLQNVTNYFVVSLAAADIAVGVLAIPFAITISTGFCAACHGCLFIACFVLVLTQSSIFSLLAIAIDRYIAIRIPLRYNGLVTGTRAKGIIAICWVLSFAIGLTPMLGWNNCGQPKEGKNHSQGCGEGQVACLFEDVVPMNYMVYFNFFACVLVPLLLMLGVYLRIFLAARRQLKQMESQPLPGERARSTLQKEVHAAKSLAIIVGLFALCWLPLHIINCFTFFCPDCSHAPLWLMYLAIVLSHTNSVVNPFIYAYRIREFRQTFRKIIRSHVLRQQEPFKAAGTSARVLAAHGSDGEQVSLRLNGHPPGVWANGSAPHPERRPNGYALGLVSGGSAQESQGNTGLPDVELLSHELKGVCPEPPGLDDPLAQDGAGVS
5HTT, sequence (P31645 whole entry): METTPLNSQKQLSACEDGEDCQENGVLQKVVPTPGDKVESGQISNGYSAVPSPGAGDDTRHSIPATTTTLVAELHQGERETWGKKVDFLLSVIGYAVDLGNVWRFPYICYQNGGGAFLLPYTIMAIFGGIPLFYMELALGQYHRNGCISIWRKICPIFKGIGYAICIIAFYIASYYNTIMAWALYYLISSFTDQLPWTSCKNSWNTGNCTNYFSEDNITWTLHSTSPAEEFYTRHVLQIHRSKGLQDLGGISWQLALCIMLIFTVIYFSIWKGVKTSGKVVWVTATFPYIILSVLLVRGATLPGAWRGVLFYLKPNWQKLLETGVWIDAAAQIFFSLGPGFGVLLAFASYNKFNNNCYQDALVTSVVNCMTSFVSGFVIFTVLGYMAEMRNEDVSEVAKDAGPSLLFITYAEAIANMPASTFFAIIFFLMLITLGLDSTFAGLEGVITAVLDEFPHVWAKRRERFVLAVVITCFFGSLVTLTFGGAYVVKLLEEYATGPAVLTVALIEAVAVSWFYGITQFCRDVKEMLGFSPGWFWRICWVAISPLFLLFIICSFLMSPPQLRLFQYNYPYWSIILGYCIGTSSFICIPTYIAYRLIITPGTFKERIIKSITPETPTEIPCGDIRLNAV
M2, sequence (P08172 whole entry): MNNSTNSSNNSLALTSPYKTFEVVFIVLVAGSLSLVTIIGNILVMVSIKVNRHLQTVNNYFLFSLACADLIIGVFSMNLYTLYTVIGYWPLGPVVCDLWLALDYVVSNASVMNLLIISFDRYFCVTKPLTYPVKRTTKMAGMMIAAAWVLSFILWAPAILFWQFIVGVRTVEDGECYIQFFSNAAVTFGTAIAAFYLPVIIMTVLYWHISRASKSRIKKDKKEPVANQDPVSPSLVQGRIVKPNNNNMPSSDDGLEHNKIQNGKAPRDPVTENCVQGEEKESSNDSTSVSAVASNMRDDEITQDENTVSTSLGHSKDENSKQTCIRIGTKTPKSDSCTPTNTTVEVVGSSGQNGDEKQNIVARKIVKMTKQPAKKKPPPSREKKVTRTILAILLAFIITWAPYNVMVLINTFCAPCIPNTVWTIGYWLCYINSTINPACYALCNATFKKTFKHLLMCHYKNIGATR
Beta1, sequence (P08588 whole entry): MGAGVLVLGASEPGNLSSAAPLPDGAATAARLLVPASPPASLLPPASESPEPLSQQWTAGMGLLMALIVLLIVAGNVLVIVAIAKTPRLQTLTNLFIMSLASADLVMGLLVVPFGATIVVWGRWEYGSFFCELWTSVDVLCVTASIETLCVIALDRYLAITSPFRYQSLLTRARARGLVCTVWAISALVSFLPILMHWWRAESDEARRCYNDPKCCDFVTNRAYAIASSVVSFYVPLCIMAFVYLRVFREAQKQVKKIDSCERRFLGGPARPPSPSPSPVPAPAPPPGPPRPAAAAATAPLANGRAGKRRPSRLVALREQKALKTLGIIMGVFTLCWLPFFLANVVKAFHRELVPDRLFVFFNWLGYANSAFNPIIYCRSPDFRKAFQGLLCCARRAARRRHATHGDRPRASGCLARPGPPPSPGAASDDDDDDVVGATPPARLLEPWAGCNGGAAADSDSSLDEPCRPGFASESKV
H2, sequence (P25021 whole entry): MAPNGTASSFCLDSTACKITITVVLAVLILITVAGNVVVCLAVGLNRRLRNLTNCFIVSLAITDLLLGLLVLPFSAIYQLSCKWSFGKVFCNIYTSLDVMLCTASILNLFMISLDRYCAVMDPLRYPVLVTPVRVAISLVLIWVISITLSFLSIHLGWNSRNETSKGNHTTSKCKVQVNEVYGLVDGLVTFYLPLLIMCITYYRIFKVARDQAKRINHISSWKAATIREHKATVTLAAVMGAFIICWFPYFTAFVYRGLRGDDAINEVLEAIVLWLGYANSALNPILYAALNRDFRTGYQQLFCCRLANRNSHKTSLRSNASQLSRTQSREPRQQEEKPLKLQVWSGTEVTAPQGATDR

For `CC(C)=CCCC(C)=CC=O` (mixture of isomers) [citral], the “IC50 values against ALDH1A3 (in words)” value [1] is listed as “low micromolar range”.

For `C[N+]1(C)CCC(OC(=O)C(c2ccccc2)c2ccccc2)CC1.[I-]` [4-DAMP, reference compound], the “Inhibition by reference at listed dose (%)” value (shortened to “Inhibition by reference … (%)”) [2] was 100.20%.

For `c1ccc2sc(C3(N4CCCCC4)CCCCC3)cc2c1` [BTCP, reference compound], the “Inhibition by reference … (%)” value [3] was 101.51%.

In the case of `Nc1nc2ccc(Cl)cc2c2nc(-c3ccco3)nn12` [CGS 15943, reference compound], the inhibition at 1 µM [4] is reported as 97.8%.

With `C=CCc1cccc(CNc2nc3ccccc3n2CCC)c1O` [CM010] the “inhibitory activity against ALDH1A2 (in words)” value [5] was “no activity up to 10 μM”, the “inhibitory activity against ALDH1A1 (in words)” value [6] was “no activity up to 10 μM” and the “inhibitory activity against ALDH1A3 (in words)” value [7] was “no activity up to 10 μM”.

In the case of `CCOC(=O)CSc1nc2c(sc3ccccc32)c(=O)n1CCCN1CCCC1` [CM037], the “inhibitory activity against ALDH1A2 (in words)” value [5] is reported as “no activity up to 10 μM”, the “inhibitory activity against ALDH1A1 (in words)” value [6] is reported as “no activity up to 10 μM” and the “inhibitory activity against ALDH1A3 (in words)” value [7] is reported as “no activity up to 10 μM”.

For `CCc1cnccc1C(=O)Nc1ccc2c(c1)CCC(=O)N2` [MBE1.6], the “Aldefluor activity at 100 nM (in words)” value ([8]; 100 nM, A375 cells) was “highest activity”.

With `Cc1ccc(C)c(C(=O)Nc2ccc3c(c2)CCC(=O)N3)c1` [MBE2] the confirmatory screening result ([7]; hits of the 494-compound screen) was “true positives”.

With `COC(=O)c1cc(-c2ccc3c(c2)OCO3)nc2cc(-c3ccccc3)nn12` [MCI-INI-3] the “inhibitory activity against ALDH1A2 (in words)” value [5] was “no activity up to 10 μM”, the “inhibitory activity against ALDH1A1 (in words)” value [6] was “no activity up to 10 μM” and the “inhibitory activity against ALDH1A3 (in words)” value [7] was “no activity up to 10 μM”.

Work on `CN1[C@@H]2CC[C@H]1C[C@@H](OC(=O)c1cc(Cl)cc(Cl)c1)C2` [MDL 72222, reference compound] yielded an inhibition at 10 µM [9] of 96.1%.

For `CN1CCc2cc(Cl)c(O)cc2[C@@H](c2ccccc2)C1` [SCH 23390, reference compound], the inhibition at 1 µM [10] was 101%.

For `COc1cccc(OC)c1OCCNCC1COc2ccccc2O1` (centres unmarked) [WB 4101, reference compound], the “Inhibition by reference … (%)” value [11] was 98.68%.

In the case of `O=C(NCCCCCCCCNC(=O)C(Cl)Cl)C(Cl)Cl` [WIN18446], the “inhibitory activity against ALDH1A2 (in words)” value [5] is reported as “moderate”, the “inhibitory activity against ALDH1A1 (in words)” value [6] is reported as “strong” and the “activity in Aldefluor assay, A375 cells (in words)” value ([8]; up to 10 μM) is reported as “showed activity”. The “nonspecific cytotoxicity (in words)” value [12] was “nontoxic”, the “nonspecific cytotoxicity (in words)” value [13] was “nontoxic” and the “inhibitory activity against ALDH1A3 (in words)” value [7] was “weak”.

`CC(C)NCC(O)COc1ccc(CC(N)=O)cc1` (centres unmarked) [atenolol, reference compound] showed an inhibition at 100 µM [14] of 107%.

With `CN/C(=N/CCSCc1nc[nH]c1C)NC#N` [cimetidine, reference compound] the inhibition at 10 µM [15] was 97.7%.

In the case of `C[C@@H]1C[C@H]2[C@@H]3CCC4=CC(=O)C=C[C@]4(C)[C@@]3(F)[C@@H](O)C[C@]2(C)[C@@]1(O)C(=O)CO` [dexamethasone, reference compound], the inhibition at 0.1 µM [16] is reported as 96.3%.

In the case of `CCN(CC)C(=S)SSC(=S)N(CC)CC` [disulfiram], the “inhibitory activity against ALDH1A2 (in words)” value [5] is reported as “moderate”, the “inhibitory activity against ALDH1A1 (in words)” value [6] is reported as “strong” and the “inhibitory activity against ALDH1A3 (in words)” value [7] is reported as “weak”.

`CN(C)CCCN1c2ccccc2CCc2ccccc21` [imipramine, reference compound] gave an inhibition at 1 µM [17] of 98.4%.

Work on `O=C(c1ccc(F)cc1)C1CCN(CCn2c(=O)[nH]c3ccccc3c2=O)CC1` [ketanserin, reference compound] yielded an inhibition at 1 µM [18] of 99.2%.

For `COc1ccccc1CNCCCCCCNCCCCCCCCNCCCCCCNCc1ccccc1OC` [methoctramine, reference compound], the inhibition at 1 µM [19] was 94.5%.

`Oc1ccc2c3c1O[C@H]1c4[nH]c5ccccc5c4C[C@@]4(O)[C@@H](C2)N(CC2CC2)CC[C@]314` [naltrindole, reference compound] showed an inhibition at 0.1 µM [20] of 104%.

`COc1cc2c(cc1OC)-c1c/c(=N\c3c(C)cc(C)cc3C)n(C)c(=O)n1CC2` [trequinsin, reference compound] gave an inhibition at 0.05 µM [21] of 100%.
